The results in this text go back to PMC5750217 (Nature Communications, 2018).

The target of the experiment is T1, A1-T459C (mutant ASCT1) (Homo sapiens, UniProt P43007, T459C).
T1 construct: expressed in transfected cells; host or cells: Xenopus laevis oocytes (cRNA injection)
T1 sequence (P43007 1-532 T459C): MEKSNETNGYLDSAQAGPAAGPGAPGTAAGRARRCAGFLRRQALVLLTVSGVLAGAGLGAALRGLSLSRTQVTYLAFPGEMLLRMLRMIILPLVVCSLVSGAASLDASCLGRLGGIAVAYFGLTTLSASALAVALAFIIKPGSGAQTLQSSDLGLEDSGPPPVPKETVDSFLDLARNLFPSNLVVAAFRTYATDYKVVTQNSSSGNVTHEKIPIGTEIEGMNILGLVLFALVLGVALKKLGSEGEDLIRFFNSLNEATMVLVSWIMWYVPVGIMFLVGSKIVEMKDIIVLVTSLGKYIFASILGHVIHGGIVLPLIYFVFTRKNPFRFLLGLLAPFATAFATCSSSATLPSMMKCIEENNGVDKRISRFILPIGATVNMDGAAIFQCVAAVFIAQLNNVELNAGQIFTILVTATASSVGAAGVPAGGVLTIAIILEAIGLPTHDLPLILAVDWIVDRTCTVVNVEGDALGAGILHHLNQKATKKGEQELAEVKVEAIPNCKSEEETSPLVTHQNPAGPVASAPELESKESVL
Nature of the experiment: Two electrode voltage clamp, substrate-activated anion current in oocytes expressing A1-T459C. It is filed as cell-based. The note with it: for EC50: A1-T459C in oocytes, NO3−-containing buffer, current at +60 mV. The protocol: All chemicals were obtained from Sigma unless otherwise stated. Stage V oocytes were harvested from female Xenopus laevis (frogs) which were obtained from Nasco (Fort Alkinson, USA). Frogs were anaesthetised with 6.5 mM tricaine neutralised with 7.14 mM sodium bicarbonate. After making an incision in the abdomen of the frog, ovarian sacs were removed and stored in OR-2 buffer (82.5 mM NaCl, 2 mM KCl, 1 mM MgCl2, 5 mM hemisodium HEPES, pH 7.5). This surgical procedure follows a protocol (#2016/970) approved by the University of Sydney Animal Ethics Committee under the Australian Code of Practice for the Care and Use of Animals for Scientific Purposes. To isolate oocytes, the ovarian sacs were cut into small sections before being digested by agitation with 2 mg per ml Collagenase A for 1–2 h. Following digestion, defoliculated oocytes were initially rinsed with OR-2, followed by frog Ringer’s solution (96 mM NaCl, 2 mM KCl, 1 mM MgCl2, 1.8 mM CaCl2, 5 mM hemisodium HEPES, pH 7.5). A total of 20 ng of transporter cRNA was injected into oocytes which were stored in frog Ringer’s solution supplemented with 0.1% gentamycin, 50 μg per ml tetracycline, 2.5 mM pyruvate and 0.5 mM theophylline at 16–18 °C.
After 2–4 days of microinjection, current recordings were made using the two electrode voltage clamp technique with a Geneclamp 500 amplifier (Axon Instruments, Foster City, CA) interfaced with a MacLab 2e chart recorder (ADI Instruments, Sydney, Australia) using the chart software, and a Digidata 1322A (Axon Instruments) controlled by an IBM-compatible computer using the pClamp software (version 10, Molecular Devices, Union City, CA). The current–voltage relationships for substrate elicited conductances were obtained by subjecting cells to 200 ms voltage pulses between −100 mV and + 60 mV in 10 mV steps. Current–voltage relationships were calculated by subtracting steady state current measurements in the absence of substrate from corresponding current measurements in the presence of substrate. […]

Regarding `N[C@@H](CCC(=O)Nc1ccc([N+](=O)[O-])cc1)C(=O)O` [GPNA, glutamyl-p-nitroanilide], where the note is “A1-T459C, GPNA co-applied with EC50 of L-serine, maximal dose / 1 mM GPNA (Table 1 footnote)”, the “GPNA % inhibition of L-serine activated current” value stood at 18 ± 1%. As a reminder, the EC50 is the midpoint of the concentration-response curve. A low value points to higher potency in that assay. Regarding `NC(=O)CC[C@H](N)C(=O)O` [L-glutamine], the EC50 was found to be 260 ± 80 µM. As for `N[C@@H](CO)C(=O)O` [L-serine], the half-maximal effective concentration (EC50) turned out to be 83 ± 6 µM.
